Source: patent publication USRE30633E, “3-Lower alkylcarbamylsulfonamido-4-phenylaminopyridines, n-oxides, derivatives thereof and pharmaceutical compositions containing same” (A. Christiaens Societe Anonyme, priority 1974, dated 1981)

How the values were obtained:
paw of rats = test: Pharmacological test for anti-inflammatory properties (carrageenan rat paw swelling); type: in vivo; settings: oral 1 hour before carrageenan (0.05 ml of 1%), swelling 4 hours after injection by plethysmography, dose not given
Description: 1. Pharmacological test for anti-inflammatory properties.
The compounds to be tested are given as freshly prepared solutions or suspensions by oral route 1 hour before injecting the paw of rats with carrageenan which is a known inflammatory agent.
The inflammatory agent (carrageenan) either in solution or suspension is then injected into the plantar tissue of the right hind paw of each rat, the left paw remaining untreated and serving as control. Each animal receives, for example, 0.05 ml of an aqueous solution containing 1% by weight of carrageenan and 0.9% of sodium chloride.
4 hours after the injection of the inflammatory agent, the importance of swelling is determined by plethysmography and is expressed as a percent of the volume of the control paw.
The anti-inflammatory effect expressed as a percentage of inhibition is obtained by comparison between rats treated with the anti-inflammatory compound and a control group of rats.

rats = test: Pharmacological test for diuretic properties (urine volume); type: in vivo; settings: 50 mg/kg gastric gavage, 25 ml/kg saline s.c., urine collected 4 hours, ml/kg of body weight
Description: 2. Pharmacological tests for diuretic properties Lots of 3 rats weighting 250-300 g have been constituted at random, each of them being submitted to the same treatment. The compound to be tested was administered by .[.gastric gavage at a dose of 50 ml/kg as a solution or a.]. .Iadd.gastric gavage at a dose of 50 mg/kg as a solution or a .[…].suspension in water containing 0.45% of methylcellulose (which is an inert mucilaginous substance). Control animals received only distilled water as a placebo. At the same time, all the animals received 25 ml/kg of physiological saline by subcutaneous injection. The rats were then placed in metabolic cages, each cage containing 3 animals receiving the same treatment. The urines have been collected during 4 hours. […] The diuresis is expressed in ml/kg of body weight.

Row | Structure (SMILES) | % inhibition of acute oedema (paw of rats) [%] | Diuresis (rats) [mL/kg]
1 | CCCNC(=O)NS(=O)(=O)c1cnccc1Nc1ccc(Cl)cc1 [JDL 417, 3-propylcarbamylsulfonamido-4-(4'-chloro)-phenylaminopyridine] | 72.8 | 58.3
2 | CCNC(=S)NS(=O)(=O)c1cnccc1Nc1cccc(C(F)(F)F)c1 [JDL 420, 3-ethylthiocarbamylsulfonamido-4-(3'trifluoromethyl)-phenylaminopyridine] | 52.8 | 65.0
3 | CC(C)NC(=O)NS(=O)(=O)c1cnccc1Nc1ccccc1Cl [JDL 421, 3-isopropylcarbamylsulfonamido-4-(2'-chloro)-phenylaminopyridine] | 88.8 | 72.0
4 | CCCCNC(=O)NS(=O)(=O)c1cnccc1Nc1ccccc1Cl [JDL 422, 3-butylcarbamylsulfonamido-4(2'-chloro)-phenylaminopyridine] | 46.4 | 56.7
5 | CC(C)NC(=O)NS(=O)(=O)c1cnccc1Nc1ccc(Cl)cc1 [JDL 423, 3-isopropylcarbamylsulfonamido-4-(4'-chloro)-phenylaminopyridine] | 64.0 | 68.7
6 | CCCCNC(=O)NS(=O)(=O)c1cnccc1Nc1ccc(Cl)cc1 [JDL 424, 3-butylcarbamylsulfonamido-4-(4'-chloro)-phenylaminopyridine] | 50.4 | 21.0
7 | CC(C)(C)NC(=O)NS(=O)(=O)c1cnccc1Nc1ccc(Cl)cc1 [JDL 425, 3-tertiobutylcarbamylsulfonamido-4-(4'-chloro)-phenylaminopyridine] | 42.4 | 37.7
8 | O=C(NC1CCCCC1)NS(=O)(=O)c1cnccc1Nc1ccc(Cl)cc1 [JDL 426, 3-cyclohexylcarbamylsulfonamido-4-(4'-chloro)-phenylaminopyridine] | 73.6 | 22.0
9 | CC(C)(C)NC(=O)NS(=O)(=O)c1cnccc1Nc1ccccc1Cl [JDL 427, 3-tertiobutylcarbamylsulfonamido-4-(2'-chloro)-phenylaminopyridine] | 53.6 | 11.4
10 | O=C(NC1CCCCC1)NS(=O)(=O)c1cnccc1Nc1ccccc1Cl [JDL 428, 3-cyclohexylcarbamylsulfonamido-4-(2'-chloro)-phenylamionpyridine] | 17.6 | 15.6
11 | CCNC(=O)NS(=O)(=O)c1cnccc1Nc1cccc(C)c1 [JDL 463, 3-ethylcarbamylsulfonamido-4-(3'-methyl)-phenylaminopyridine] | 73.6 | 76.1
12 | Cc1cccc(Nc2ccncc2S(=O)(=O)NC(=O)NC(C)C)c1 [JDL 464, 3-isopropylcarbamylsulfonamido-4-(3'-methyl)-phenylaminopyridine] | 76.8 | 81.6
13 | CCNC(=O)NS(=O)(=O)c1cnccc1Nc1cccc(F)c1 [JDL 465, 3-ethylcarbamylsulfonamido-4-(3'-fluoro)-phenylaminopyridine] | 71.2 | 76.7
14 | CC(C)NC(=O)NS(=O)(=O)c1cnccc1Nc1cccc(F)c1 [JDL 466, 3-isopropylcarbamylsulfonamido-4-(3'-fluoro)-phenylaminopyridine] | 68.0 | 70.7
15 | CCNC(=O)NS(=O)(=O)c1cnccc1Nc1cccc(Br)c1 [JDL 467, 3-ethylcarbamylsulfonamido-4-(3'-bromo)-phenylaminopyridine] | 69.6 | 65.8
16 | CC(C)NC(=O)NS(=O)(=O)c1cnccc1Nc1cccc(Br)c1 [JDL 468, 3-isopropylcarbamylsulfonamido-4-(3'-bromo)-phenylaminopyridine] | 72.0 | 77.2
17 | CCNC(=O)NS(=O)(=O)c1cnccc1Nc1cccc(OC)c1 [JDL 469, 3-ethylcarbamylsulfonamido-4-(3'-methoxy)-phenylaminopyridine] | 60.8 | 46.9
18 | COc1cccc(Nc2ccncc2S(=O)(=O)NC(=O)NC(C)C)c1 [JDL 470, 3-isopropylcarbamylsulfonamido-4-(3'-methoxy)-phenylaminopyridine] | 83.2 | 74.9

Row | Structure (SMILES) | % inhibition of acute oedema (paw of rats) [%] | Diuresis (rats) [mL/kg]
19 | CCNC(=O)NS(=O)(=O)c1cnccc1NCc1ccco1 [JDL 471, 3-ethylcarbamylsulfonamido-4-methylfurylaminopyridine] | 70.4 | 37.7
20 | CC(C)NC(=O)NS(=O)(=O)c1cnccc1NCc1ccco1 [JDL 472, 3-isopropylcarbamylsulfonamido-4-methylfurylaminopyridine] | 54.4 | 69.6
21 | CCNC(=O)NS(=O)(=O)c1cnccc1Nc1cc(Cl)cc(Cl)c1 [JDL 473, 3-ethylcarbamylsulfonamido-4-(3',5'-dichloro)-phenylaminopyridine] | 41.6 | 24.0
22 | CCNC(=O)NS(=O)(=O)c1cnccc1Nc1ccc(Cl)c(Cl)c1 [JDL 475, 3-ethylcarbamylsulfonamido-4-(3',4'-dichloro)-phenylaminopyridine] | 79.2 | 34.3
23 | CC(C)NC(=O)NS(=O)(=O)c1cnccc1Nc1ccc(Cl)c(Cl)c1 [JDL 476, 3-isopropylcarbamylsulfonamido-4-(3',4'-dichloro)-phenylaminopyridine] | 92.0 | 42.1
24 | CNC(=S)NS(=O)(=O)c1cnccc1Nc1cccc(Cl)c1 [JDL 477, 3-methylthiocarbamylsulfonamido-4-(3'-chloro)-phenylaminopyridine] | 61.6 | 43.6
25 | CCNC(=S)NS(=O)(=O)c1cnccc1Nc1cccc(Cl)c1 [JDL 478, 3-ethylthiocarbamylsulfonamido-4-(3'-chloro)-phenylaminopyridine] | 29.6 | 29.7
26 | CC(C)NC(=S)NS(=O)(=O)c1cnccc1Nc1cccc(Cl)c1 [JDL 479, 3-isopropylthiocarbamylsulfonamido-4-(3'-chloro)-phenylaminopyridine] | 45.6 | 44.3
27 | C=CCNC(=S)NS(=O)(=O)c1cnccc1Nc1cccc(Cl)c1 [JDL 480, 3-allyl-thiocarbamyl-sulfonamido-4-(3'-chloro)-phenylaminopyridine] | 65.6 | 26.4
28 | CC(C)NC(=O)NS(=O)(=O)c1cnccc1NC(C)C [JDL 482, 3-isopropylcarbamylsulfonamido-4-isopropylaminopyridine] | 0 | 25.3
29 | CCN(CC)c1ccncc1S(=O)(=O)NC(=O)NC(C)C [JDL 483, 3-isopropylcarbamylsulfonamido-4-diethylaminopyridine] | 0 | 12.4
30 | CCN(CC)c1ccncc1S(N)(=O)=O [JDL 484, 3-sulfonamido-4-diethylaminopyridine] | 13.6 | 9.0
31 | CCCCNC(=O)NS(=O)(=O)c1cnccc1NCc1ccco1 [JDL 485, 3-butylcarbamylsufonamido-4-methyl-furylaminopyridine] | 15.2 | 51.3
32 | CCCCNC(=O)NS(=O)(=O)c1cnccc1Nc1ccc(Cl)c(C(F)(F)F)c1 [JDL 486, 3-butylcarbamylsulfonamido-4-(3'-trifluoromethyl-4'-chloro)-phenyl aminopyridine] | 16.8 | 3.6
33 | CC(C)NC(=O)NS(=O)(=O)c1cnccc1Nc1ccc(Cl)c(C(F)(F)F)c1 [JDL 487, 3-isopropylcarbamylsulfonamido-4-(3'-trifluoromethyl-4'-chloro)-phenylaminopyridine] | 20.8 | 10.5
34 | CCNC(=O)NS(=O)(=O)c1cnccc1Nc1ccc(Cl)c(C(F)(F)F)c1 [JDL 488, 3-ethylcarbamylsulfonamido-4-(3'-trifluoromethyl-4'-chloro)-phenyl-aminopyridine] | 24.8 | 16.4
35 | CCCCNC(=O)NS(=O)(=O)c1cnccc1NC(C)C [JDL 491, 3-butylcarbamylsulfonamido-4-isopropylaminopyridine] | 88.0 | 25.1
36 | CNC(=O)NS(=O)(=O)c1cnccc1NCc1ccco1 [JDL 492, 3-methylcarbamylsulfonamido-4-methyl-furylaminopyridine] | 88.8 | 14.9
